“And” between values parts separate entries of the source, which are not always exact repeats. Equal entries are not always repeated.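 Following 48 hours of exposure in 96-well plates, responses at five concentrations were used to interpolate endpoints linearly. At the GI50, growth is halved. The concentration for full growth arrest is given as TGI.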
Tests used:
Test in all cases: DTP human tumour cell line panel, 48 h
MCF7 breast = tested on: MCF7 breast
SN12C renal = tested on: SN12C renal
HOP-62 NSCLC = tested on: HOP-62 NSCLC
NCI-H23 lung = tested on: NCI-H23 lung
OVCAR-5 ovarian = tested on: OVCAR-5 ovarian
MOLT-4 leukemia = tested on: MOLT-4 leukemia
SK-MEL-5 melanoma = tested on: SK-MEL-5 melanoma
HCT-116 colon = tested on: HCT-116 colon
A498 renal = tested on: A498 renal
NCI-H460 lung = tested on: NCI-H460 lung

| SMILES | TGI (MCF7 breast) | TGI (SN12C renal) | TGI (HOP-62 NSCLC) | TGI (NCI-H23 lung) | TGI (OVCAR-5 ovarian) | TGI (MOLT-4 leukemia) | TGI (SK-MEL-5 melanoma) | TGI (HCT-116 colon) | TGI (A498 renal) | TGI (NCI-H460 lung) | GI50 (MCF7 breast) [µM] | GI50 (SN12C renal) [µM] | GI50 (NCI-H23 lung) [µM] | GI50 (OVCAR-5 ovarian) [µM] | GI50 (SK-MEL-5 melanoma) [µM] | GI50 (HCT-116 colon) [µM] | GI50 (A498 renal) [µM] | GI50 (NCI-H460 lung) [nM] | GI50 (MOLT-4 leukemia) [µM] |
| --- | --- | --- | --- | --- | --- | --- | --- | --- | --- | --- | --- | --- | --- | --- | --- | --- | --- | --- | --- |
| COc1cc(/C=N/NC(=O)c2c(Cl)c(Cl)c(Cl)c(Cl)c2-c2nc3ccc(C(=O)c4ccccc4)cc3[nH]2)ccc1O | > 100 µM | > 100 µM | > 100 µM | > 100 µM | > 100 µM | 64.1 µM | > 100 µM | > 100 µM |  |  |  |  |  |  |  |  |  |  |  |
| O=C(/C=C/c1ccc([N+](=O)[O-])cc1)N1CCN(CCOC(c2ccc(F)cc2)c2ccc(F)cc2)CC1 | > 100 µM | > 100 µM | > 100 µM | > 100 µM | > 100 µM | 19 µM | > 100 µM | > 100 µM | > 100 µM | > 100 µM |  |  |  |  |  |  |  |  |  |
| COc1cccc([C@@H]2C/C(=N\NC(=O)C(=O)N[C@@H](C)c3ccccc3)c3ccccc3N2)c1 | > 100 µM | > 100 µM | > 100 µM |  | > 100 µM | 34.8 µM | > 100 µM | > 100 µM | > 100 µM |  |  |  |  |  |  |  |  |  |  |
| c1ccc(/C(=N\Nc2nc3ccccc3[nH]2)c2ccccn2)cc1 | 5.45 µM | > 21.1 µM | 2.12 µM | 14.5 µM | 4.47 µM | 51.9 µM | 4.66 µM | 4.52 µM | 5.14 µM | 13.1 µM |  |  |  |  |  |  |  |  |  |
| c1ccc(CSC(SCc2ccccc2)c2cccc3ccccc23)cc1 | > 10 µM | > 10 µM | > 10 µM | > 10 µM | > 10 µM | > 10 µM | > 10 µM | > 10 µM | > 10 µM | > 10 µM |  |  |  |  |  |  |  |  |  |
| C[n+]1c2ccccc2c(N=[N+]=[N-])c2ccccc21 | > 10 µM | > 10 µM | > 10 µM | > 10 µM | > 10 µM | > 10 µM | > 10 µM | > 10 µM | > 10 µM | > 10 µM |  |  |  |  |  |  |  |  |  |
| O=C1OC(c2ccc(O)cc2)(c2ccc(O)cc2)c2ccc(Cl)c3cccc1c23 (tested in a mixture with another compound) | > 75 µM | 27.7 µM | 16.2 µM | 31 µM | 20.8 µM |  | 29.3 µM | 18.9 µM | > 75 µM | 23.7 µM |  |  |  |  |  |  |  |  |  |
| CC[C@@]1(O)CC(OC2CC(N3CCOCC3)C(O)C(C)O2)c2c(O)c3c(c(O)c2[C@H]1O)C(=O)c1cccc(O)c1C3=O (stereo partly specified) | 2.58 µM and 13.8 µM | 2.17 µM and 9.19 µM | 0.597 µM and 0.427 µM | 1.95 µM and 1.09 µM | 2.17 µM and 0.821 µM | 0.369 µM and 0.128 µM | 0.451 µM and 0.181 µM | 4.27 µM and 3.5 µM | 0.634 µM and 0.229 µM | 0.554 µM and 0.113 µM | 0.0161 | 0.0465 | 0.101 | 0.192 | 0.0175 | 0.0149 | 0.07 | 0.052 |  |
| Cc1cc(C)c2c(=O)n(CC(O)CN(Cc3ccccc3)CC(O)Cn3sc4nc(C)cc(C)c4c3=O)sc2n1 (stereo unspecified) | 32.1 µM | 32.7 µM | 30.1 µM | 33.4 µM | 36.4 µM | > 100 µM | 30.1 µM | 31.5 µM |  | 39.3 µM |  |  |  |  |  |  |  |  |  |
| NC1CCN(c2nc3ccccc3c3c2CCCC3)CC1 | 8.6 µM | 21.5 µM | 35.1 µM | 28.2 µM | 19 µM | 9.36 µM | 7.01 µM | 14.4 µM | 22.7 µM | 13.5 µM |  |  |  |  |  |  |  |  |  |
| O=C(CSCC(=O)N/N=C\c1ccc(F)cc1F)N/N=C\c1ccc(F)cc1F | > 100 µM | > 100 µM | > 100 µM | > 100 µM |  | > 100 µM | > 100 µM | > 100 µM | > 100 µM | > 100 µM |  |  |  |  |  |  |  |  |  |
| C=C(CN(C)C)C(=O)c1ccccc1OC |  | 40 µM | > 100 µM | 33.7 µM | 38.5 µM | > 20.8 µM | 31.1 µM | 30.9 µM | 64 µM | 63.2 µM |  |  |  |  |  |  |  |  |  |
| O=C(O)c1cc2ccccc2c(N=Nc2ccc(S(=O)(=O)Nc3ccccn3)cc2)c1O | > 100 µM | > 100 µM | > 100 µM |  | > 100 µM | > 100 µM | > 100 µM | > 100 µM |  | > 100 µM |  |  |  |  |  |  |  |  |  |
| CC1(C)CN(CC(=O)O)CC(Cc2ccc(OCC(=O)O)cc2)N(CC(=O)O)CC(C)(C)SS1 (stereo unspecified) | > 100 µM | > 100 µM | > 100 µM | > 100 µM | > 100 µM | > 100 µM | > 100 µM | > 100 µM | > 100 µM | > 100 µM |  |  |  |  |  |  |  |  |  |
| CCOC(=O)C1=C(C(=O)OCC)SC2(S1)C(C(=O)OCC)=C(C(=O)OCC)Sc1c2ssc1=O | 3.5 µM | 2.48 µM | 3.21 µM | 4.02 µM | 12.4 µM | 2.14 µM | 5.29 µM | 2.3 µM | 12.8 µM | 21.9 µM |  |  |  |  |  |  |  |  |  |
| COc1ccccc1C#C/C=C\C#Cc1ccccc1C#N | 28 µM | > 100 µM | 62.5 µM | 25 µM | > 100 µM | 38.4 µM | 5.95 µM | 27.7 µM |  | > 100 µM |  |  |  |  |  |  |  |  |  |
| N#CC1(CCCI)CCCC1 |  | 26.3 µM |  | 24.7 µM | 51.6 µM | > 100 µM | 25.5 µM | > 100 µM | > 100 µM | 25.9 µM |  |  |  |  |  |  |  |  |  |
| C[C@]12CC[C@H]3[C@@H](CC=C4C[C@@H](O)CC[C@@]43C)[C@@H]1C/C(=C\c1ccncc1)[C@@H]2O | 59 µM | 34.8 µM | > 100 µM | 33.6 µM | > 100 µM | 61.9 µM | 21.1 µM | 51.4 µM | 28.3 µM | 42.2 µM |  |  |  |  |  |  |  |  |  |
| Cc1[nH]c2ncn3[nH]c(=S)nc3c2c1Cc1ccccc1 | > 100 µM | > 100 µM | > 100 µM | > 100 µM | > 100 µM | > 100 µM | > 100 µM | > 100 µM | > 100 µM | > 100 µM |  |  |  |  |  |  |  |  |  |
| Cc1ncc(C(=O)Nc2ccc(CN3CCN(C)CC3)c(C(F)(F)F)c2)cc1C#Cc1cnc(N)c2ccc(C#N)cc12 | > 100 µM | 5.01 µM |  | 3.28 µM |  | > 100 µM |  |  |  |  | 2.04 | < 0.0124 | 0.0959 |  |  |  |  |  | 0.0559 |
| CC(C)CCN(CCC(C)C)CC(=O)Nc1ccc(S(=O)(=O)c2ccc(NC(=O)CN(CCC(C)C)CCC(C)C)cc2)cc1 | 11 µM | 25.2 µM |  | 4.84 µM | 5.46 µM | 7.44 µM | 3.05 µM |  | 38.8 µM | 6.1 µM | 1.31 | 3.1 | 1.81 | 2.07 | 1.53 |  | 16.5 | 2070 | 2.28 |
| O=C1Nc2cccc(Cl)c2/C1=C\c1cccnc1 | 18.1 µM | 20.5 µM | 19.1 µM | 15.8 µM | 16.1 µM | 10.2 µM | 27.4 µM | 11.3 µM | 37.1 µM | 36.5 µM |  |  |  |  |  |  |  |  |  |
| O=C1N[C@H]2C(=O)c3c(Br)sc(Br)c3[C@H]2O1 | 25.4 µM | 11.4 µM | 44.5 µM | 17.7 µM | 34.3 µM | 5.25 µM | 27.7 µM | 7.33 µM | 33.2 µM | 35 µM |  |  |  |  |  |  |  |  |  |
| COC(=O)c1c(O)ccc2c1c1c(n2CCc2ccc(OC)c(OC)c2)C(=O)c2ccccc2C1=O | 45.2 µM | 50.9 µM | 32.9 µM | 31.5 µM | 34.1 µM | 65.8 µM | 23.9 µM | 26.7 µM | 32.9 µM | 19.5 µM |  |  |  |  |  |  |  |  |  |
| Nc1ccc(Oc2ccc(C34CC5CC(C3)CC(c3ccc(Oc6ccc(N)cc6C(F)(F)F)cc3)(C5)C4)cc2)c(C(F)(F)F)c1 | 33.8 µM | > 100 µM | 44.9 µM | 45.6 µM | 70.3 µM | > 100 µM | 39.9 µM | > 100 µM | 35.2 µM | 37.9 µM |  |  |  |  |  |  |  |  |  |
| Cc1csc2nc(-c3cccc([N+](=O)[O-])c3)c(/C=N/N=C(N)N)n12 |  | 3.11 µM |  | 3.49 µM | 2.98 µM |  | 2.74 µM | 3.3 µM | 2.92 µM | 9.61 µM |  |  |  |  |  |  |  |  |  |
| CCCCCCCCCCCCc1ccc(S(=O)(=O)O)cc1.[Cu+2] | > 100 µM | > 100 µM | > 100 µM | > 100 µM | > 100 µM | > 100 µM | > 100 µM | > 100 µM | > 100 µM | > 100 µM |  |  |  |  |  |  |  |  |  |
| N#Cc1c(-c2ccc([N+](=O)[O-])cc2)c2c([nH]c1=O)-c1ccccc1CCC2 | > 100 µM | > 100 µM | > 100 µM | > 100 µM | > 100 µM | > 100 µM | > 100 µM | > 100 µM | > 100 µM | > 100 µM |  |  |  |  |  |  |  |  |  |

— PubChem BioAssay (NCI)
